Source: publication PMC4591263, “The GSTome Reflects the Chemical Environment of White-Rot Fungi” (PLoS ONE, 2015)

Key:
Test in all cases: GSH conjugation of CDNB, Michaelis-Menten fit
Format in all cases: biochemical
Conditions in all cases: saturating GSH
TvGSTO-6S = target: T1, TvGSTO-6S (Trametes versicolor, UniProt A0A384E158)
T1 construct: synthetic gene in pET-26b (NdeI/NotI), C-terminal His-tag, E. coli Rosetta2 (DE3) pLysS
T1 sequence (A0A384E158 1-246): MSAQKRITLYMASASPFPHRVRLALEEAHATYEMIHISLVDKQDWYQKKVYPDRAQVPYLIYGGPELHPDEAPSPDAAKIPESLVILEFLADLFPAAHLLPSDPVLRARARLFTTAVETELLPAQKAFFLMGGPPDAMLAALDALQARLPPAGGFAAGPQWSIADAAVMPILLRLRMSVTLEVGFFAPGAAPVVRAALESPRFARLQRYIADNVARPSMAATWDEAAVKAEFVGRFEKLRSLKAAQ

TvGSTO-3S = target: T2, TvGSTO-3S (Trametes versicolor, UniProt A0A384E145)
T2 construct: synthetic gene in pET-26b (NdeI/NotI), C-terminal His-tag, E. coli Rosetta2 (DE3) pLysS
T2 sequence (A0A384E145 1-240): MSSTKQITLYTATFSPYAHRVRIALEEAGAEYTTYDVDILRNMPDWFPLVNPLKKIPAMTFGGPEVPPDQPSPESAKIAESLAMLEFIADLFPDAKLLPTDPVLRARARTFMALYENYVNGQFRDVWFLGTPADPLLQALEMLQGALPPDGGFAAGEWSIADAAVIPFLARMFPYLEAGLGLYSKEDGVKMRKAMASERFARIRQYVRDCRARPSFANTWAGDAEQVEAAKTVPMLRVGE

TvGSTO-1S = target: T3, TvGSTO-1S (Trametes versicolor, UniProt R7S9J3)
T3 construct: gene TRAVEDRAFT_75639; synthetic gene in pET-26b (NdeI/NotI), C-terminal His-tag, E. coli Rosetta2 (DE3) pLysS
T3 sequence (R7S9J3 1-256): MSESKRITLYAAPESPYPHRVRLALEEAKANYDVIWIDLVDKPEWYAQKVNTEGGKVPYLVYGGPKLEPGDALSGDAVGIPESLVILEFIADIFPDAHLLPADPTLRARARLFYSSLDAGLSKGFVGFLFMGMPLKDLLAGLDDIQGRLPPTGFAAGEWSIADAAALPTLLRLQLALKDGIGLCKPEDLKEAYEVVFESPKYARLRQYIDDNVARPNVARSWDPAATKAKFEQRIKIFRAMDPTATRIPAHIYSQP

Compound: O=[N+]([O-])c1ccc(Cl)c([N+](=O)[O-])c1 [CDNB, 1-chloro-2,4-dinitrobenzene]
- Km (TvGSTO-6S): All proteins exhibit an activity against CDNB
- Km (TvGSTO-3S): All proteins exhibit an activity against CDNB
- Km (TvGSTO-1S): All proteins exhibit an activity against CDNB
